The structures appear in SMILES notation.

Experiment [1] concerns the target IDH1-R132H recombinant protein (Homo sapiens, UniProt O75874, R132H). Description: IDH1-R132H enzymatic assay (NADPH consumption, diaphorase/resazurin readout). The format is biochemical. As to conditions: read-out: Enzyme IDH1 R132H Range. Here is the method:
(§1) Assays were performed in a 384-well black plate. […] After the plate was centrifuged briefly, an aliquot of 10 μL of 2 mM α-ketoglutarate and 20 μM NADPH solution prepared in assay buffer was then added to each well and the reaction was maintained at 25° C. for 45 minutes. An aliquot of 10 μL of diaphorase solution (0.15 U/mL diaphorase and 30 μM Resazurin in assay buffer) was added to each well. […] The IC50 of a given compound was calculated by fitting the dose response curve of inhibition of NADPH consumption at a given concentration with the four parameter logistic equation.
Background: The colour change of resazurin is a common sign of viable cells or microbes.

Experiment [2] addresses IDH1-R132C recombinant protein (Homo sapiens, UniProt O75874, R132C). Description: IDH1-R132C enzymatic assay (NADPH consumption, diaphorase/resazurin readout). To be noted: read-out: Enzyme IDH1 R132C Range. The format is biochemical. On the procedure:
as §1

The test system of experiment [3] is HCT116 isogenic IDH1-R132H mutant cells. As to the kind of experiment: Cellular 2-HG assay using HCT116 mutant IDH1 cells (R132H). The format is cell-based. To be noted: Homo sapiens, HCT-116; cellular 2-HG inhibition, 24 hours, RapidFire mass spectrometry; read-out: HCT116 IDH1 R132H Range. On the procedure:
(§2) HCT116 isogenic IDH1-R132H and IDH1-R132C mutant cells were cultured in growth media (McCoy's 5A, 10% fetal bovine serum, 1× antibiotic-antimycotic solution and 0.3 mg/mL G418) in 5% CO2 in an incubator at 37° C. To prepare the assay, cells were trypsinized and resuspended in assay media (McCoy's 5A with no L-glutamine, 10% fetal bovine serum, 1× antibiotic-antimycotic solution and 0.3 mg/mL G418). An aliquot of 10,000 cells/100 μL was transferred to each well of a clear 96-well tissue culture plate. The cells were incubated in 5% CO2 at 37° C. in an incubator overnight to allow for proper cell attachment. An aliquot of 50 μL of compound containing assay media were then added to each well and the assay plate was kept in 5% CO2 at 37° C. in an incubator for 24 hours. The media was then removed from each well and 150 μL of a methanol/water mixture (80/20 v/v) was added to each well. The plates were kept at −80° C. freezer overnight to allow for complete cell lysis. An aliquot of 125 μL of extracted supernatant was analyzed by RapidFire high-throughout-mass spectrometry (Agilent) to determine the cellular 2-HG level. The IC50 of a given compound was calculated by fitting the dose response curve of cellular 2-HG inhibition at a given concentration with the four parameter logistic equation

The subject of experiment [4] is HCT116 isogenic IDH1-R132C mutant cells. Description: Cellular 2-HG assay using HCT116 mutant IDH1 cells (R132C). The format is cell-based. To be noted: Homo sapiens, HCT-116; cellular 2-HG inhibition, 24 hours, RapidFire mass spectrometry; read-out: HCT116 IDH1 R132C Range. On the procedure: as §2

Chain of IDH1-R132H recombinant protein (O75874 whole entry R132H): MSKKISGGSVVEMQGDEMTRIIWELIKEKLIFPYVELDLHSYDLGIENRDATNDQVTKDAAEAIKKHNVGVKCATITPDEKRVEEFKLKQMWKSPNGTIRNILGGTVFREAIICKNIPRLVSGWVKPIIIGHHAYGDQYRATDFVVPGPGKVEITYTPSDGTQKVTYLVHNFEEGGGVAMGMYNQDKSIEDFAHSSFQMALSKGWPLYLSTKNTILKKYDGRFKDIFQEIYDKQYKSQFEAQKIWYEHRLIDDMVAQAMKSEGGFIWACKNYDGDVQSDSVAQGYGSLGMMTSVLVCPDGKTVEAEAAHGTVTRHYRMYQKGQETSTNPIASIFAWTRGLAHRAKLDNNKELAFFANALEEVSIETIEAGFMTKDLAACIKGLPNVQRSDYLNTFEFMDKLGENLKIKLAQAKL
Chain of IDH1-R132C recombinant protein (O75874 whole entry R132C): as the sequence (O75874 whole entry R132H) above, with H132C counted along it

For `N#Cc1ccc(NCc2cc3cc(Cl)ccc3[nH]c2=O)c(=O)[nH]1` [Compound I-4, 5-{[(6-chloro-2-oxo-1,2-dihydroquinolin-3-yl)methyl]amino}-6-oxo-1,6-dihydropyridine-2-carbonitrile], the IC50 in experiment [1] lay in the range of 10 to 100 nM; in experiment [2] it was 100 to 1000 nM.

As for `O=c1[nH]c2ccc(Cl)cc2cc1CNc1ccc(Br)[nH]c1=O` [Compound I-7, 3-{[(6-bromo-2-oxo-1,2-dihydropyridin-3-yl)amino]methyl}-6-chloro-1,2-dihydroquinolin-2-one], the IC50 in experiment [1] is over 1000 nM.

For the compound `O=c1[nH]c2ccc(Cl)cc2cc1CNc1ccc(C(F)(F)F)[nH]c1=O` [Compound I-8, 6-chloro-3-({[2-oxo-6-(trifluoromethyl)-1,2-dihydropyridin-3-yl]amino}methyl)-1,2-dihydroquinolin-2-one], the IC50 in experiment [1] is over 1000 nM.

Turning to `Cn1c(C(F)(F)F)ccc(NCc2cc3cc(Cl)ccc3[nH]c2=O)c1=O` [Compound I-9, 6-chloro-3-({[1-methyl-2-oxo-6-(trifluoromethyl)-1,2-dihydropyridin-3-yl]amino}methyl)-1,2-dihydroquinolin-2-one], the IC50 in experiment [1] was 100 to 1000 nM; in experiment [2], over 10000 nM.

For the compound `COC(=O)c1c[nH]c(=O)c(NCc2cc3cc(Cl)ccc3[nH]c2=O)c1` [Compound I-10, methyl 5-{[(6-chloro-2-oxo-1,2-dihydroquinolin-3-yl)methyl]amino}-6-oxo-1,6-dihydropyridine-3-carboxylate], in experiment [1], the IC50 was over 1000 nM.

For `Cn1cccc(NCc2cc3cc(Cl)c(OCc4ccccn4)cc3[nH]c2=O)c1=O` [Compound I-12, 6-chloro-3-{[(1-methyl-2-oxo-1,2-dihydropyridin-3-yl)amino]methyl}-7-(pyridin-2-ylmethoxy)-1,2-dihydroquinolin-2-one], the IC50 in experiment [1] was 10 to 100 nM; in experiment [2], over 10000 nM.

As for `C[C@H](Nc1ccc(C#N)n(C)c1=O)c1cc2cc(Cl)ccc2[nH]c1=O` [Compound I-13, (S)-5-((1-(6-chloro-2-oxo-1,2-dihydroquinolin-3-yl)ethyl)amino)-1-methyl-6-oxo-1,6-dihydropyridine-2-carbonitrile], the IC50 in experiment [3] and in experiment [4] was 10 to 100 nM in each case.

As to `C[C@H](Nc1ccc(C#N)[nH]c1=O)c1cc2cc(Cl)ccc2[nH]c1=O` [Compound I-14, 5-{[(1S)-1-(6-chloro-2-oxo-1,2-dihydroquinolin-3-yl)ethyl]amino}-6-oxo-1,6-dihydropyridine-2-carbonitrile], the IC50 is 10 to 100 nM in experiment [1], 100 to 1000 nM in experiment [2], 10 to 100 nM in experiment [3] and 100 to 1000 nM in experiment [4].

In the case of `C[C@H](Nc1ccc(C#N)n(C)c1=O)c1cc2cc(Cl)c(F)cc2[nH]c1=O` [Compound I-16, 5-{[(1S)-1-(6-chloro-7-fluoro-2-oxo-1,2-dihydroquinolin-3-yl)ethyl]amino}-1-methyl-6-oxo-1,6-dihydropyridine-2-carbonitrile], the IC50 was 10 to 100 nM in experiment [1], 100 to 1000 nM in experiment [2], 10 to 100 nM in experiment [3] and 100 to 1000 nM in experiment [4].

Regarding `C[C@H](Nc1ncc(C#N)n(C)c1=O)c1cc2cc(Cl)ccc2[nH]c1=O` [Compound I-17, 5-{[(1S)-1-(6-chloro-2-oxo-1,2-dihydroquinolin-3-yl)ethyl]amino}-1-methyl-6-oxo-1,6-dihydropyrazine-2-carbonitrile], the IC50 in experiment [1] is 10 to 100 nM; in experiment [2] it was 100 to 1000 nM; in experiment [3], 10 to 100 nM; in experiment [4], 100 to 1000 nM.

Consider `C[C@@H](Nc1ccc(C#N)n(C)c1=O)c1cc2cc(Cl)c(F)cc2[nH]c1=O` [Compound I-18, 5-{[(1R)-1-(6-chloro-7-fluoro-2-oxo-1,2-dihydroquinolin-3-yl)ethyl]amino}-1-methyl-6-oxo-1,6-dihydropyridine-2-carbonitrile], for which the IC50 in experiment [1] is over 1000 nM; in experiment [2] it was over 10000 nM.

Take `COc1cc2[nH]c(=O)c([C@H](C)Nc3ccc(C#N)n(C)c3=O)cc2cc1Cl` [Compound I-20, 5-{[(1S)-1-(6-chloro-7-methoxy-2-oxo-1,2-dihydroquinolin-3-yl)ethyl]amino}-1-methyl-6-oxo-1,6-dihydropyridine-2-carbonitrile]: the IC50 in experiment [3] was under 10 nM; in experiment [4], 10 to 100 nM.

On to `COc1cc2[nH]c(=O)c(C(C)Nc3ccc(C#N)n(C)c3=O)cc2cc1Cl` (stereo not drawn) [Compound I-22, 5-{[1-(6-chloro-7-methoxy-2-oxo-1,2-dihydroquinolin-3-yl)ethyl]amino}-1-methyl-6-oxo-1,6-dihydropyridine-2-carbonitrile], for which the IC50 was under 10 nM in experiment [3] and 10 to 100 nM in experiment [4].

Regarding `C[C@H](Nc1ccc(C#N)n(C)c1=O)c1cc2cc(Cl)c(OCc3ccccn3)cc2[nH]c1=O` [Compound I-23, 5-{[(1S)-1-[6-chloro-2-oxo-7-(pyridin-2-ylmethoxy)-1,2-dihydroquinolin-3-yl]ethyl]amino}-1-methyl-6-oxo-1,6-dihydropyridine-2-carbonitrile], the IC50 in experiment [3] and in experiment [4] was under 10 nM throughout.

With `CC(Nc1ccc(C#N)n(C)c1=O)c1cc2cc(Cl)c(OCc3ccccn3)cc2[nH]c1=O` (stereo not drawn) [Compound I-25, 5-({1-[6-chloro-2-oxo-7-(pyridin-2-ylmethoxy)-1,2-dihydroquinolin-3-yl]ethyl}amino)-1-methyl-6-oxo-1,6-dihydropyridine-2-carbonitrile], the IC50 in experiment [3] and in experiment [4] was under 10 nM each time.

Take `C[C@H](Nc1ccc(C#N)n(C)c1=O)c1cc2cc(Cl)c(O[C@H](C)c3ccccn3)cc2[nH]c1=O` [Compound I-26, 5-(((S)-1-(6-chloro-2-oxo-7-((R)-1-(pyridin-2-yl)ethoxy)-1,2-dihydroquinolin-3-yl)ethyl)amino)-1-methyl-6-oxo-1,6-dihydropyridine-2-carbonitrile]: the IC50 in experiment [3] and in experiment [4] was under 10 nM each time.

As for `C[C@H](Nc1ccc(C#N)n(C)c1=O)c1cc2cc(Cl)c(OCC3CC3)cc2[nH]c1=O` [Compound I-27, 5-{[(1S)-1-[6-chloro-7-(cyclopropylmethoxy)-2-oxo-1,2-dihydroquinolin-3-yl]ethyl]amino}-1-methyl-6-oxo-1,6-dihydropyridine-2-carbonitrile], the figures for the IC50 in experiment [3] and in experiment [4] were under 10 nM and 10 to 100 nM, respectively.

As to `CC(Nc1ccc(C#N)n(C)c1=O)c1cc2cc(Cl)c(OCC3CC(F)(F)C3)cc2[nH]c1=O` (stereo not drawn) [Compound I-28, 5-[(1-{6-chloro-7-[(3,3-difluorocyclobutyl)methoxy]-2-oxo-1,2-dihydroquinolin-3-yl}ethyl)amino]-1-methyl-6-oxo-1,6-dihydropyridine-2-carbonitrile], the IC50 in experiment [1], in experiment [3] and in experiment [4] was 10 to 100 nM throughout.

For the compound `CC(C)Oc1cc2[nH]c(=O)c([C@H](C)Nc3ccc(C#N)n(C)c3=O)cc2cc1Cl` [Compound I-29, 5-{[(1S)-1-[6-chloro-2-oxo-7-(propan-2-yloxy)-1,2-dihydroquinolin-3-yl]ethyl]amino}-1-methyl-6-oxo-1,6-dihydropyridine-2-carbonitrile], the IC50 in experiment [3] and in experiment [4] was 10 to 100 nM throughout.

For the origin of these results see patent US12275715B2, “Pyridin-2(1H)-one quinolinone derivatives as mutant-isocitrate dehydrogenase inhibitors” (FORMA Therapeutics, Inc., priority 2014, dated 2025).
